Laboratory results published in the kinase profiling compilation of Christmann-Franck et al. (2016).

Columns and labels:
Experiment in all cases: KINOMEscan competition binding
Details in all cases: compound 0.5 µM
TLK1 (human) = TLK1 (human) (UniProt Q9UKI8)
CSNK1G2 (human) = CSNK1G2 (human) (UniProt P78368)
HIPK1 (human) = HIPK1 (human) (UniProt Q86Z02)
TNIK (human) = TNIK (human) (UniProt Q9UKE5)
PLK1 (human) = PLK1 (human) (UniProt P53350)
TAOK2 (human) = TAOK2 (human) (UniProt Q9UL54)
MAP3K2 (human) = MAP3K2 (human) (UniProt Q9Y2U5)
INSRR (human) = INSRR (human) (UniProt P14616)
INSRR (human), sequence (P14616 whole entry, looked up): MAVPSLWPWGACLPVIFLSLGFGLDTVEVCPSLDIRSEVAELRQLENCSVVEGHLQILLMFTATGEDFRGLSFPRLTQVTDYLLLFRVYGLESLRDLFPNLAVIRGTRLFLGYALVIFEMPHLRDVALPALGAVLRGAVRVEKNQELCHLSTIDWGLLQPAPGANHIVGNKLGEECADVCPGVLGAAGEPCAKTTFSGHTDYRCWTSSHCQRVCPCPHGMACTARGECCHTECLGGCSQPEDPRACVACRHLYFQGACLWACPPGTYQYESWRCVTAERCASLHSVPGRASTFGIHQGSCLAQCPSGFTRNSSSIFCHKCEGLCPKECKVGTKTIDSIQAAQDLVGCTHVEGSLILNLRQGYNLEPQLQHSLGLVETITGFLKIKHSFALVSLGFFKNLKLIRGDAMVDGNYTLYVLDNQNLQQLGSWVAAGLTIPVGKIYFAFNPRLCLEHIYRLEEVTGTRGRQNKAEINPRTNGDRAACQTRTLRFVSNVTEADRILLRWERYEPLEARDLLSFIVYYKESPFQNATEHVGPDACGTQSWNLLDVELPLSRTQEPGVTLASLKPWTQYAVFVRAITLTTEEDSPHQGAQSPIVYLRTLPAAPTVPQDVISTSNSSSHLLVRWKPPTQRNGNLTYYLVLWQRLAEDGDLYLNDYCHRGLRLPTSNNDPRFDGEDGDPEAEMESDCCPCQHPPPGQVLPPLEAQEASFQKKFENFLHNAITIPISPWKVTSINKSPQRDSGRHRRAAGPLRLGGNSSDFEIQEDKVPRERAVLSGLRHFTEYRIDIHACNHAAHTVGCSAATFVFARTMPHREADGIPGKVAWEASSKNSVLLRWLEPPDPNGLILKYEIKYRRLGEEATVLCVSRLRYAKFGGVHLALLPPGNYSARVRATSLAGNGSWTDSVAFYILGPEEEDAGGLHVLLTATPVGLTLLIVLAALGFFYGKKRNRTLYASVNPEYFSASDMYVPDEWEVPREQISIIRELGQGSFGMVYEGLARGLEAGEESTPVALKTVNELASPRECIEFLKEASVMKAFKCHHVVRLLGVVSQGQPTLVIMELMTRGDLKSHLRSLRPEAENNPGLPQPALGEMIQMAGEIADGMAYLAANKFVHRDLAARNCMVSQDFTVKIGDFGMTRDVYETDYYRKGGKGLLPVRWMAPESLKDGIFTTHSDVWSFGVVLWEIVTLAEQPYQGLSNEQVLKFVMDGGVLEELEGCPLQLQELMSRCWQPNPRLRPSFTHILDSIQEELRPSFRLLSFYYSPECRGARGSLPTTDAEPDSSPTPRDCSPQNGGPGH

MAP2K6 (human) = MAP2K6 (human) (UniProt P52564)
STK33 (human) = STK33 (human) (UniProt Q9BYT3)
MAPKAPK5 (human) = MAPKAPK5 (human) (UniProt Q8IW41)
MINK1 (human) = MINK1 (human) (UniProt Q8N4C8)
PHKG2 (human) = PHKG2 (human) (UniProt P15735)
AURKA (human) = AURKA (human) (UniProt O14965)
LRRK2 (human) = LRRK2 (human) (UniProt Q5S007)
CAMK1G (human) = CAMK1G (human) (UniProt Q96NX5)
CAMK1G (human), sequence (Q96NX5 whole entry, looked up): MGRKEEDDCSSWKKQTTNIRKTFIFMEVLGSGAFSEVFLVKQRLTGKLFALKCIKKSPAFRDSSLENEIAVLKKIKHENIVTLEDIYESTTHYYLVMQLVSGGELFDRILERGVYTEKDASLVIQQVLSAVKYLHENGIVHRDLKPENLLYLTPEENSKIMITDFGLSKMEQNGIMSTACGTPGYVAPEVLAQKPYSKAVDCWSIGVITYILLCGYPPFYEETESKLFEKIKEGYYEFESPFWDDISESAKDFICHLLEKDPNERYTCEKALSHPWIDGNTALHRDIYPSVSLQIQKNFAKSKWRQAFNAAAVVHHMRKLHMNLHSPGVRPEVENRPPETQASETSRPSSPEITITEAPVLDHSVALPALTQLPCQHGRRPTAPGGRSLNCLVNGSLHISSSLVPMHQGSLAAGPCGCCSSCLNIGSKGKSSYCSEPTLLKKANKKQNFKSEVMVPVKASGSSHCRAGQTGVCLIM

CSNK1G1 (human) = CSNK1G1 (human) (UniProt Q9HCP0)
CSNK1G1 (human), sequence (Q9HCP0 whole entry, looked up): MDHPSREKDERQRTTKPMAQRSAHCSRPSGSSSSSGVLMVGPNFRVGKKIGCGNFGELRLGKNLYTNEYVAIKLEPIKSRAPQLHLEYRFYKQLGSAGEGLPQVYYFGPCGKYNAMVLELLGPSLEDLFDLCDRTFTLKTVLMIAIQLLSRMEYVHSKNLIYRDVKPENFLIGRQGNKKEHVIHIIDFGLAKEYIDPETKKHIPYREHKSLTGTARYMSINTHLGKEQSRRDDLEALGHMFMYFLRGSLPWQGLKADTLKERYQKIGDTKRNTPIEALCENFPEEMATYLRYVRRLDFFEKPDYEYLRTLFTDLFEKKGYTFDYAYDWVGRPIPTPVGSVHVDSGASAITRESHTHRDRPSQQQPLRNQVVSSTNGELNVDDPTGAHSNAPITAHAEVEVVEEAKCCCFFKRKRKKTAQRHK

MARK2 (human) = MARK2 (human) (UniProt Q7KZI7)
STK17B (human) = STK17B (human) (UniProt O94768)
BRAF (human) = BRAF (human) (UniProt P15056)
BRAF (human), sequence (P15056 whole entry, looked up): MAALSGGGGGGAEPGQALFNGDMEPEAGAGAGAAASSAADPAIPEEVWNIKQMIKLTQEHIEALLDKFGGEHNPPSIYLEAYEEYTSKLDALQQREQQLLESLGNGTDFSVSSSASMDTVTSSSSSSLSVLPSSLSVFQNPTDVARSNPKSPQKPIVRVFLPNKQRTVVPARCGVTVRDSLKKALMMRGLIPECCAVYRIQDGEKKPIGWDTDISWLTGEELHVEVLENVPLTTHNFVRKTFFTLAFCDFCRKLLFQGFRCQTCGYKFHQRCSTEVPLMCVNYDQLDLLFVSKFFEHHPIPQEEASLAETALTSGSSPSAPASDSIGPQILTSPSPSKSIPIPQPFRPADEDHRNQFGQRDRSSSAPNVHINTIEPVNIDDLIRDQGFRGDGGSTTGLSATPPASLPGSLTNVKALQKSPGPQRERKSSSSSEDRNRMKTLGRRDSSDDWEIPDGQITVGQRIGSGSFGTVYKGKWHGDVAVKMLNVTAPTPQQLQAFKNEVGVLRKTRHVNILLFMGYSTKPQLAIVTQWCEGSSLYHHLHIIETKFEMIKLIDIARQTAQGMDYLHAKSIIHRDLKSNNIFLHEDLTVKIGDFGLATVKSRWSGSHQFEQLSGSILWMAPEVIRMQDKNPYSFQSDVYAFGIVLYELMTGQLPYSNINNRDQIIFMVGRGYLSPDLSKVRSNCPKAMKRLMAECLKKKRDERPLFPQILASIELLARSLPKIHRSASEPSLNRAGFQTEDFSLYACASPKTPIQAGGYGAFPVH

TAOK1 (human) = TAOK1 (human) (UniProt Q7L7X3)
RIPK4 (human) = RIPK4 (human) (UniProt P57078)
FGFR2 (human) = FGFR2 (human) (UniProt P21802)
EPHA1 (human) = EPHA1 (human) (UniProt P21709)
MAP2K7 (human) = MAP2K7 (human) (UniProt O14733)
PRKG2 (human) = PRKG2 (human) (UniProt Q13237)
[1] = target: TYK2 JH1 catalytic (human) (UniProt P29597)
TEC (human) = TEC (human) (UniProt P42680)
TEC (human), sequence (P42680 whole entry, looked up): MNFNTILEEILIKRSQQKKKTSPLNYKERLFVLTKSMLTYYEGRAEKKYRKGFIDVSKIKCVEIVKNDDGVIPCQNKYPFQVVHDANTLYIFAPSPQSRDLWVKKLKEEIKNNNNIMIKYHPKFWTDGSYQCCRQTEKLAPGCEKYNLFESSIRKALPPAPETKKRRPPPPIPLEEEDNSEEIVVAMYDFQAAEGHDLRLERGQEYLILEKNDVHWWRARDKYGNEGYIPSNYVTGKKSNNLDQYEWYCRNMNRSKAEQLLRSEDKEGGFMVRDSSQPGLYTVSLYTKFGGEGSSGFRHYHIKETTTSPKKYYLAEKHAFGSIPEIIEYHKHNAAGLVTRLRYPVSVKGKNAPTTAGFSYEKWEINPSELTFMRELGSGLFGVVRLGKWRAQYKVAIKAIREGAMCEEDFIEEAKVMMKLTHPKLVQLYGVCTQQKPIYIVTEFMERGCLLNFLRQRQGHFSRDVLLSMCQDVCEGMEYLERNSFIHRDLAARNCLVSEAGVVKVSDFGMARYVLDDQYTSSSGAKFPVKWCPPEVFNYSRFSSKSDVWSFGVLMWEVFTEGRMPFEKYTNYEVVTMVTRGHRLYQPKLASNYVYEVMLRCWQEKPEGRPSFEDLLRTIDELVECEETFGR

RPS6KA4 KD1 (human) = RPS6KA4 KD1 (human) (UniProt O75676)
MAP4K3 (human) = MAP4K3 (human) (UniProt Q8IVH8)
[2] = target: JAK3 JH1 catalytic (human) (UniProt P52333)
JAK3 JH1 catalytic (human), sequence (P52333 whole entry, looked up): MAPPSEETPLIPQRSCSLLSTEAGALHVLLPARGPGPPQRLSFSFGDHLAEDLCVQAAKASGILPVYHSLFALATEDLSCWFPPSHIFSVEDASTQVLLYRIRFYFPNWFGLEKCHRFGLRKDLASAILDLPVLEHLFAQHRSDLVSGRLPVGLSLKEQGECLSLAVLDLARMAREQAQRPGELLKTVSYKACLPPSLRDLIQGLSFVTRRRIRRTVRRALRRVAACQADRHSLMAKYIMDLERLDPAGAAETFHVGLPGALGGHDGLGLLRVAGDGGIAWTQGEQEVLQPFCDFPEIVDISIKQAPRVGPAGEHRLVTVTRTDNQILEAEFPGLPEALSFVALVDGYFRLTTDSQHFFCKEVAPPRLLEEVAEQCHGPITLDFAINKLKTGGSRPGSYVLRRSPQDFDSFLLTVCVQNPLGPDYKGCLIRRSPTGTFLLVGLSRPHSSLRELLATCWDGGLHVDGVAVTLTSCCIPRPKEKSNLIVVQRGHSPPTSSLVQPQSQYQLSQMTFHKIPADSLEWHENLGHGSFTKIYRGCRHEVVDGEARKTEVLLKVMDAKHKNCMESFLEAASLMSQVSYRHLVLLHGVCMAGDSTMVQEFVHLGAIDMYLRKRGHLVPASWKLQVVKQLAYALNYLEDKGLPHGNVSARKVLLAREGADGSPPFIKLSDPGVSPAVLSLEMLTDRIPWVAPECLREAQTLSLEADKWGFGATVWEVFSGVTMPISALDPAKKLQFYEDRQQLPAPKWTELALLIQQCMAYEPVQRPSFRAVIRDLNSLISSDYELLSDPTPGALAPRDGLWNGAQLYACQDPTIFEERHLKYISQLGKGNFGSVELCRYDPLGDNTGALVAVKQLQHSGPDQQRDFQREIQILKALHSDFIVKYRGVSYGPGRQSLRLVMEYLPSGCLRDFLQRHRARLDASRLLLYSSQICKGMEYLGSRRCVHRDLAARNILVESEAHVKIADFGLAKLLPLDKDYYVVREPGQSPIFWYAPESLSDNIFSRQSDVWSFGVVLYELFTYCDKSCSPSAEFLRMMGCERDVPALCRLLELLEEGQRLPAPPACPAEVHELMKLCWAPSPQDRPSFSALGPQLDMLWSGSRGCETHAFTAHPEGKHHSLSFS

AXL (human) = AXL (human) (UniProt P30530)
ULK2 (human) = ULK2 (human) (UniProt Q8IYT8)
BRSK2 (human) = BRSK2 (human) (UniProt Q8IWQ3)
CLK4 (human) = CLK4 (human) (UniProt Q9HAZ1)
ROCK2 (human) = ROCK2 (human) (UniProt O75116)
CSNK2A1 (human) = CSNK2A1 (human) (UniProt P68400)
MAPK13 (human) = MAPK13 (human) (UniProt O15264)
ROS1 (human) = ROS1 (human) (UniProt P08922)
PIM1 (human) = PIM1 (human) (UniProt P11309)
PIM1 (human), sequence (P11309 whole entry, looked up): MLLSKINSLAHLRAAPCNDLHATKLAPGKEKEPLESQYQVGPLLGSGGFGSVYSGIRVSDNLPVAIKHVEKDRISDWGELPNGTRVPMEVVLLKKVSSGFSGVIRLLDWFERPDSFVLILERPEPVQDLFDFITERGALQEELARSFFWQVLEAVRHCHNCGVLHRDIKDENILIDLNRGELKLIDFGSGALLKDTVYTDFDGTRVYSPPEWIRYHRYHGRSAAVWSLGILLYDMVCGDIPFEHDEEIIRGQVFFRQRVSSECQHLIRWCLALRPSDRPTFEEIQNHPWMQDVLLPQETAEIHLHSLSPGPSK

MAPK7 (human) = MAPK7 (human) (UniProt Q13164)
MAP4K2 (human) = MAP4K2 (human) (UniProt Q12851)

Cn1c2ccccc2c2c3c(c4c5ccccc5n(CCC#N)c4c21)CNC3=O
kinase still bound, per cent of control (TLK1 (human)): 83% | kinase still bound, per cent of control (CSNK1G2 (human)): 94% | kinase still bound, per cent of control (HIPK1 (human)): 32% | kinase still bound, per cent of control (TNIK (human)): 0.3% | kinase still bound, per cent of control (PLK1 (human)): 100% | kinase still bound, per cent of control (TAOK2 (human)): 7.7% | kinase still bound, per cent of control (MAP3K2 (human)): 0.1% | kinase still bound, per cent of control (INSRR (human)): 100% | kinase still bound, per cent of control (MAP2K6 (human)): 15% | kinase still bound, per cent of control (STK33 (human)): 1.5% | kinase still bound, per cent of control (MAPKAPK5 (human)): 100% | kinase still bound, per cent of control (MINK1 (human)): 1% | kinase still bound, per cent of control (PHKG2 (human)): 4.4% | kinase still bound, per cent of control (AURKA (human)): 74% | kinase still bound, per cent of control (LRRK2 (human)): 19% | kinase still bound, per cent of control (CAMK1G (human)): 66% | kinase still bound, per cent of control (CSNK1G1 (human)): 100% | kinase still bound, per cent of control (MARK2 (human)): 9.8% | kinase still bound, per cent of control (STK17B (human)): 100% | kinase still bound, per cent of control (BRAF (human)): 100% | kinase still bound, per cent of control (TAOK1 (human)): 8% | kinase still bound, per cent of control (RIPK4 (human)): 5.2% | kinase still bound, per cent of control (FGFR2 (human)): 95% | kinase still bound, per cent of control (EPHA1 (human)): 97% | kinase still bound, per cent of control (MAP2K7 (human)): 79% | kinase still bound, per cent of control (PRKG2 (human)): 11% | kinase still bound, per cent of control [1]: 0.6% | kinase still bound, per cent of control (TEC (human)): 92% | kinase still bound, per cent of control (RPS6KA4 KD1 (human)): 46% | kinase still bound, per cent of control (MAP4K3 (human)): 6% | kinase still bound, per cent of control [2]: 0% | kinase still bound, per cent of control (AXL (human)): 72% | kinase still bound, per cent of control (ULK2 (human)): 86% | kinase still bound, per cent of control (BRSK2 (human)): 49% | kinase still bound, per cent of control (CLK4 (human)): 6.1% | kinase still bound, per cent of control (ROCK2 (human)): 18% | kinase still bound, per cent of control (CSNK2A1 (human)): 80% | kinase still bound, per cent of control (MAPK13 (human)): 100% | kinase still bound, per cent of control (ROS1 (human)): 1.8% | kinase still bound, per cent of control (PIM1 (human)): 32% | kinase still bound, per cent of control (MAPK7 (human)): 0.1% | kinase still bound, per cent of control (MAP4K2 (human)): 1.1%
